Assay results reported in patent US11136615B2 (PROMEGA CORPORATION, priority 2017, dated 2021).

Key:
Type in all cases: physicochemical
[1] = Effect of ATT on pro-luciferin stability (RP-HPLC); conditions: 2-hydroxyethyl ester of luciferin methyl ether 1.0 mM, PBS pH 7.4, 5% DMSO, ATT 8.0 mM, 37° C., FIG. 4
Procedure: A stock solution of this compound in DMSO was added to PBS buffer at pH 7.4 to reach a final concentration at 1.0 mM and 5% DMSO. The mixture was incubated at 37° C., with or without ATT (Sigma, at a final concentration of 8.0 mM). Aliquots (20 μL) were taken out at various time points, diluted with H2O (180 μL), and analyzed by RP-HPLC. The percentages of the components were calculated based on UV absorbance at 330 nm.

[2] = Thermal stability (T80) of Ultra-Glo™-based ATP detection reagent; conditions: 37° C.
Procedure: (FIG. 6). T80 (the storage time during which the complete ATP detection reagent produced ≥80% of the light output from the freshly made reagent), a parameter reflecting reagent thermal stability, was improved by 1 fold at 37° C. after addition of ATT. In particular, the T80 value in the absence of ATT (0 mM) was 4 days, whereas the T80 value in the presence of ATT (3 mM) was 8 days (FIG. 6A). Further, the combination of dehydroluciferin and ATT as additives further improved the reagent stability, increasing the T80 value to 18 days (FIG. 6B, at 3 mM ATT with 0.3 mM corresponding dehydro-compound).

[3] = Effect of ATT on pro-luciferin stability with or without TCEP (RP-HPLC); conditions: 2-hydroxyethyl ester of luciferin methyl ether 1.0 mM, PBS pH 7.4, 5% DMSO, ATT 8.0 mM, TCEP 10 mM, 37° C., FIG. 5
Procedure: ATT was also shown to be compatible with additives that are commonly used in bioluminescence systems. […] The mixture was incubated at 37° C., with or without ATT (Sigma, at a final concentration of 8.0 mM), and with or without TCEP (Thermo Scientific, at a final concentration of 10 mM).

[4] = Effect of ATT on luciferin stability (RP-HPLC); conditions: luciferins 1.0 mM, cationic detergent buffers pH 6.0, ATT 2.0 mM, 60° C., FIG. 3
Procedure: Representative luciferins were reconstituted (at final concentration of 1.0 mM) in buffers containing various cationic detergents at pH 6.0, with or without ATT (Sigma, at a final concentration of 2.0 mM). The mixture was incubated at 60° C. Aliquots (20 μL) were taken out at various time points, diluted with H2O (180 μL), and analyzed by RP-HPLC. The percentages of the components were calculated based on UV absorbance at 330 nm.

Cc1n[nH]c(=S)[nH]c1=O [ATT, 6-methyl-3-thioxo-3,4-dihydro-1,2,4-triazin-5(2H)-one]
decomposition of the pro-luciferin compound [1]: slowed down
formation of the corresponding dehydroluciferin derivative [1]: reduced
T80 (storage time with ≥80% of the light output of freshly made reagent) ([2]; ATT 3 mM in complete ATP detection reagent, 4 days in the absence of ATT, FIG. 6A): 8 days
improvement of T80 after addition of ATT ([2]; complete ATP detection reagent): 1 fold
stability of the pro-luciferin compound in the presence of TCEP [3]: improved
dehydroluciferin formation [4]: reduced
luciferin thermal stability [4]: improved
